Data from patent US10576085B2, “Substituted aminopurine compounds, compositions thereof, and methods of treatment therewith” (Signal Pharmaceuticals, LLC, priority 2016, dated 2020).

Columns and labels:
Colo 205 = assay: Proliferation, CellTiter-Glo, 72 h; format: cell-based; settings: Colo 205
Procedure: (§1) HCC cell lines were treated with DMSO or increasing concentrations of Compound 1 for 72 h. Specifically, Compound 1 at various concentrations in dimethyl sulfoxide (DMSO) was spotted via an acoustic dispenser (EDC ATS-100) into an empty 384-well plate. Compound 1 was spotted in a 10-point serial dilution fashion (3-fold dilution) in duplicate within the plate. Replicates of plates spotted with Compound 1 were made for use with different cell lines. After compound plate replication, all plates were sealed (Agilent ThermoLoc) and stored at −20° C. for up to 1 month. When ready for testing, plates were removed from the freezer, thawed, and unsealed just prior to the addition of the test cells.
(§2) Prior to testing, cells were grown and expanded in culture flasks to provide sufficient amounts of starting material. Cells were then diluted to the appropriate densities and added directly to the compound-spotted 384-well plates. Cells were allowed to grow for 72 h at 37° C./5% CO2. At the time when compound was added (t0), initial cell number was assessed via a viability assay (Cell Titer-Glo) by quantifying the level of luminescence generated by ATP present in viable cells. After 72 h, cell viability of compound-treated cells was assessed via Cell Titer-Glo and luminescence measurement. The apoptotic response to Compound 1 was assessed by quantifying the activities of caspase 3 and caspase 7 (Caspase 3/7-Glo) in treated cells and DMSO control cells.
(§3) A Four Parameter Logistic Model (Sigmoidal Dose-Response Model) was used to determine the compound's GI50 value. y=(A+((B−A)/(1+((C/x)^D))))
(§4) GI50 is the concentration of the compound when Y=(YMax+Yt0)/2
(§5) Cells were treated with DMSO or increasing concentrations of Compound 1 for 72 h. Proliferation was measured using CellTiter-Glo as described.

Hep3B = assay: Proliferation, CellTiter-Glo, 72 h; format: cell-based; settings: Homo sapiens, HCC, β-catenin Active
Procedure: as §1, §2, §3, §4, §5

JHH-5 = assay: Proliferation, CellTiter-Glo, 72 h; format: cell-based; settings: JHH-5, Liver
Procedure: as §1, §2, §3, §4, §5

LOX-IMVI = assay: Proliferation, CellTiter-Glo, 72 h; format: cell-based; settings: Homo sapiens, Melanoma, BRAF (V600E), β-catenin Inactive
Procedure: as §1, §2, §3, §4, §5

[1] = system: beta-catenin and YAP target genes (Axin2, CTGF, AREG); assay: Beta-catenin and YAP target genes, qPCR, Colo 205; format: cell-based
Procedure: Cellular activity against beta-catenin and YAP target genes by Compound 1 was evaluated. Colon cancer cell line Colo 205 (BRAF V600E) cultures were treated with DMSO or increasing concentrations of Compound 1 for 2, 8 or 24 h. RNAs were extracted using Cell-To-CT kit and quantitative PCR was performed with probes specific for Axin2, CTGF, and AREG. Specific probes for β-actin were used for normalization.

[2] = system: Axin2 expression in human bronchial epithelial cells; assay: Gene expression analysis, Axin2 RT-PCR, Wnt3a/RSPO3 stimulated; format: cell-based; settings: 0.1, 1, 10 uM; Wnt3a / RSPO3 stimulation; 24 hours
Procedure: Human bronchial epithelial cells were cultured in T-150 flasks in BEpiCM growth medium and allowed to reach 80% confluency. Cells were plated in 12-well plastic culture plates at 150,000 cells per well in BEpiCM medium for 24 hours. After a 24-hour incubation, cells were treated with dimethyl sulfoxide (DMSO) as a control, Compound 1 at 0.1, 1, 10 uM, for 30 minutes. Cells were then stimulated with 100 ng/ml recombinant Wnt3a (formulated in phosphate buffered saline [PBS]), 350 pM RSPO3 (formulated in PBS) or a combination of Wnt3 and RSPO3 for 24 hours. Ribonucleic acid (RNA) was isolated using a Qiagen Rneasy Mini Kit according to manufacturer's instruction. Axin2 and gene expression was determined using reverse transcription polymerase chain reaction (RT-PCR) Taq-Man assays. Quantitative PCR (qPCR) was performed using SuperScript® III One-Step RT-PCR System and ran on a Viia 7 Real-Time PCR System. Data was normalized to glyceraldehyde 3-phosphate dehydrogenase. […] Gene expression was measured at 24 hours. […] (FIG. 22).

PD-L1 = PD-L1 expression, Western blot, KARPAS-299; format: cell-based; settings: KARPAS-299, Western blot
Procedure: The effect of Compound 1 was evaluated on PD-L1 expression levels. Cells were cultured in presence or absence of Compound 1 for indicated time before expression levels of PD-L1, DUSP4 and α-tubulin or α-actin were measured by Western blot. To detect surface levels of PD-L1, cells were treated with DMSO or Compound 1 at indicated concentrations for 48 h and cell surface expression of PD-L1 was detected using flow cytometry analysis (FACS) with an APC-labeled antibody to PD-L1 (clone 29E.1A3; BioLegend, San Diego, Calif.). Geometric mean of PD-L1 positive cells was determined by FlowJo 10 (Treestar, Ashland, Oreg.).

[3] = system: IL-2 and IFNγ production by PBMC-derived T cells; assay: T cell activation: compound-treated KARPAS-299 co-cultured with SEB-stimulated PBMC, IL-2 and IFNγ (Mesoscale); format: cell-based
Procedure: To determine if Compound 1 down-regulation of PD-L1 enhances T cell activation, compound-treated KARPAS-299 cancer cells were co-cultured with PBMC-derived T cells stimulated with low concentrations of super antigen (SEB). KARPAS-299 cells were treated with DMSO (D) or Compound 1 at indicated concentrations for 48 h. PBMC from healthy donors were treated with or without 20 ng/ml SEB for 48 h. After wash with PBS, the PBMCs were incubated with the cancer cells for 24 h and the supernatants were collected to measure IL-2 and IFNγ using Mesoscale assays.
Supernatant levels of IL-2 and IFNγ were used as functional markers of T cell activation. […] The increased levels of IL-2 and IFNγ in Compound 1-treated cancer cells were similar to the levels observed with treatment of anti-PD-L1 (Ultra-LEAF™ from Biolegend).

Colo 205 tumor = assay: Colo 205 subcutaneous colorectal xenograft model; format: in vivo, SCID mice
Procedure: For xenograft model studies human cancer cell lines were injected into SCID (severe combined immunodeficiency) mice. Cancer cell lines were propagated in culture in vitro. Tumor bearing animals were generated by injecting precisely determined numbers of cells into mice. Following inoculation of animals, the tumors were allowed to grow to a certain size prior to randomization. The mice bearing xenograft tumors ranging between pre-determined sizes were pooled together and randomized into various treatment groups. A typical efficacy study design involved administering one or more compounds at various dose levels to tumor-bearing mice. Additionally, reference chemotherapeutic agents (positive control) and negative controls were similarly administered and maintained. Tumor measurements and body weights were taken over the course of the study.
In the first experiment Compound 1 was administered orally, QD for 15 days at 0.2, 1, 5, 10, and 15 mg/kg.

C[C@]1(C(N)=O)CC[C@@H](n2c(Nc3c(Cl)cc(Cl)cc3Cl)nc3cnc(N[C@@H]4CCOC[C@H]4F)nc32)CC1 [Compound 1, cis-4-[2-{[(3S,4R)-3-fluorooxan-4-yl]amino}-8-(2,4,6-trichloroanilino)-9H-purin-9-yl]-1-methyl cyclohexane-1-carboxamide]
Mode of growth effect (cytotoxic / cytostatic) (Colo 205): cytotoxic | IC50 (Hep3B): 0.014 µM | IC50 (JHH-5): 0.0072 µM | IC50 (LOX-IMVI): 0.025 µM | Axin2 RNA ([1]; Colo 205): increased Axin2 RNA | Expression of Hippo/YAP target genes (CTGF, AREG) ([1]; Colo 205 (BRAF V600E), 2, 8 and 24 hr): significantly reduced | Axin2 expression [2]: inhibits Axin2 expression | PD-L1 expression (PD-L1): directly inhibits PD-L1 expression | IL-2 and IFNγ production ([3]; SEB 20 ng/ml, Compound 1-treated KARPAS-299 co-cultured with PBMC): increased levels of both IL-2 and IFNγ production | IL-2 and IFNγ production ([3]; absence of SEB): produced little IL-2 or IFNγ | Antitumor activity (Colo 205 tumor; orally, QD for 15 days at 0.2, 1, 5, 10, and 15 mg/kg (FIG. 8)): Dose-dependent antitumor activity | Antitumor activity (Colo 205 tumor; scheduling study, BID dosing (FIG. 9)): Dose-dependent antitumor activity
